Reference: patent publication US20240261272A1, “LPA1 ANTAGONISTS FOR TREATING INTERSTITIAL LUNG DISEASE” (Bristol-Myers Squibb Company, priority 2022, published 2024)

Assays:
participants with IPF = assay: Phase 2 study, IPF cohort: efficacy (rate of change in ppFVC, FVC); type: in vivo, human; details: for relative treatment benefit compared to PBO (ppFVC) / relative reduction in rate of decline in ppFVC compared to PBO: 60 mg; for relative reduction in rate of decline in ppFVC compared to PBO: overall
Procedure: A total of 278 participants with IPF were randomized and 276 participants were treated as of the final analyses data cut-off (4 Aug. 2022). Male and female participants ≥40 years of age with IPF and percent predicted forced vital capacity (ppFVC)≥40% and percent predicted DLCO (ppDLCO)≥25%; diagnosed within 7 years of screening; having a centrally-read chest HRCT obtained at screening that was consistent with UIP or probable UIP, or having a lung biopsy consistent with UIP, were eligible to enter the study. The mean baseline ppFVC for all subjects was 76.5%. In the primary IPF cohort, participants were randomized (1:1:1) to receive 30 mg or 60 mg Compound A or placebo (PBO) twice daily for 26 weeks. Participants were stratified by standard of care (SoC) IPF therapy (pirfenidone versus nintedanib versus none) and region (Japan versus Rest of World) at randomization.
The primary objective of the study was to determine the rate of change in ppFVC from baseline to Week 26. The primary objective was evaluated with a two estimand framework to handle the intercurrent event of dose reduction to 10 mg BID or matching PBO when pre-specified low BP criteria is met. The primary estimand is adopted to estimate treatment effect when dose reduction is implemented. The supplementary estimand is adopted to estimate the effect of treatment without dose reduction.
Analysis Strategy: The primary estimand was to evaluate the efficacy of Compound A at 30 mg or 60 mg twice daily, compared to PBO in IPF participants who met the enrollment criteria, with or without use of SoC. The rate of decline in ppFVC (%) from baseline to Week 26 was compared using the difference between each dose and PBO as a population level summary regardless of dose reduction or treatment discontinuation for any reason (treatment policy strategy).
Analysis Strategy: The supplementary estimand for the primary objective is to evaluate the efficacy of Compound A at 30 mg or 60 mg twice daily without dose reduction, compared to the PBO in IPF subjects who met the enrollment criteria, with or without use of SoC. The rate of decline in ppFVC (%) from baseline to Week 26 has been compared using the difference between each dose and PBO as a population level summary regardless of treatment discontinuation for any reason (treatment policy strategy). In the event of dose reduction, data collected after dose reduction will not be considered relevant to the treatment effect of interest and therefore, will be treated as missing (while-on-treatment strategy).

participants with PPF = assay: Phase 2 study, PPF cohort: efficacy (rate of FVC decline in % of predicted, FVC); type: in vivo, human; details: for Relative Reduction: table title, dose not given
Procedure: A total of 123 participants with PPF were randomized. Participants (age ≥21 years) were randomized (1:1:1) to receive 30 mg or 60 mg Compound A or PBO twice daily for 26 weeks. […] Immunosuppressive medications (mycophenolate mofetil, mycophenolic acid, azathioprine and/or tacrolimus) were permitted only if dosing is stable for ≥6 months prior to screening. If receiving antifibrotic agents pirfenidone or nintedanib, patients had to receive a stable dosage for ≥3 months prior to screening and during the screening period; if not receiving pirfenidone or nintedanib, patients had to be naive to both drugs or not have received either 4 weeks prior to Day 1. A total of 47 (38.2%) subjects were receiving antifibrotic treatment (with or without immunosuppression therapy). Of those subjects, 34 were being treated with nintedanib and 13 with pirfenidone. Participants were stratified by usual interstitial pneumonia (UIP) pattern (presence versus absence) and background therapy (antifibrotics +/−ILD-targeted immunosuppression versus ILD-targeted immunosuppression alone versus none).UIP pattern was present in 52% of subjects and unclassifiable ILD was he most common disease categorization.
The study was not powered to detect statistical significance (no formal testing). No target effect size was defined in the study design. There were two estimand approaches for analysis: Treatment Policy: Effect of treatment with dose reduction as part of treatment regimen.
While-On Treatment: Effect of treatment without dose reduction.
The main efficacy endpoint, rate of FVC decline (in % of predicted) from baseline to wk-26 in the PPF cohort, was estimated using a linear mixed-effects model utilizing all FVC timepoints. It was analyzed under a primary estimand (utilizing all data, treatment policy strategy), and under supplementary estimand (utilizing all data up to the point of dose reduction, while-on-treatment strategy). Analysis was performed in the overall population as well as in sub-groups by 1) background anti-fibrotic treatment or not 2) UIP radiographic pattern (presence or not). The mean baseline ppFVC was 66.700 for the PPF cohort.

CCCN(C)C(=O)OCc1c(-c2ccc(O[C@H]3CCC[C@H](C(=O)O)C3)c(C)n2)nnn1C [Compound A, (1S,3S)-3-((2-methyl-6-(1-methyl-5-(((methyl(propyl)carbamoyl)-oxy)methyl)-1H-1,2,3-triazol-4-yl)pyridin-3-yl)oxy)cyclohexane-1-carboxylic acid] was tested. Which “efficacy compared to PBO (in words)” value (participants with IPF; 30 mg dose group, Week 26) did it give?
The value was “did not demonstrate efficacy”.

And the “treatment response versus PBO (in words)” value (participants with IPF; 60 mg dose group, Week 26, ppFVC and FVC (mL))?
Its value is “favorable treatment responses”.

What about the “relative treatment benefit compared to PBO (ppFVC)” value (“relative treatment benefit” for short) (participants with IPF; not on background SoC, primary estimand) of the same compound?
The value was 113%.

What about the “relative treatment benefit” value (participants with IPF; not on background SoC, supplementary estimand) of the same compound?
The value was 123%.

And the “relative treatment benefit” value (participants with IPF; on background SoC, primary estimand)?
The value was 39%.

And the “relative treatment benefit” value (participants with IPF; on background SoC, supplementary estimand)?
Its value is 44%.

What about the “relative reduction in rate of decline in ppFVC compared to PBO” value (participants with IPF; primary estimand) of the same compound?
Its value is 54%.

And the “relative reduction in rate of decline in ppFVC compared to PBO” value (participants with IPF; supplementary estimand)?
The value was 62%.

What about the “dose response (in words)” value (participants with PPF; PPF cohort, 30 mg and 60 mg) of the same compound?
The value was “Clear dose response”.

And the “mean observed change from baseline in ppFVC percentage and FVC versus placebo (in words)” value (participants with PPF; PPF cohort, 30 mg and 60 mg, FIGS. 10 and 11)?
Its value is “show improvement over placebo at week 8”.

What about the “consistency of efficacy across sub-groups (in words)” value (participants with PPF; PPF cohort, irrespective of background antifibrotics or of UIP pattern) of the same compound?
Its value is “Efficacy consistent in all sub-groups”.

What about the “FVC (% Predicted) Rate of Decline, Difference” value (participants with PPF; PPF, 30 mg - placebo, UIP Present, Primary Estimand) of the same compound?
The value was 0.88 % Predicted.

And the “FVC (% Predicted) Rate of Decline, Slope” value (participants with PPF; PPF, 30 mg, Not Receiving Antifibrotic Treatment, Supplementary Estimand)?
Its value is −2.83 % Predicted.

What about the “FVC (% Predicted) Rate of Decline, Slope” value (participants with PPF; PPF, 30 mg, Overall Population, Primary Estimand - Treatment Policy) of the same compound?
The value was −2.7 % Predicted.

What about the “FVC (% Predicted) Rate of Decline, Slope” value (participants with PPF; PPF, 30 mg, Receiving Antifibrotic Treatment, Supplementary Estimand) of the same compound?
The value was −1.8 % Predicted.

What about the “FVC (% Predicted) Rate of Decline, Slope” value (participants with PPF; PPF, 30 mg, UIP Absent, Supplementary Estimand) of the same compound?
The value was −2.24 % Predicted.

What about the “FVC (% Predicted) Rate of Decline, Slope” value (participants with PPF; PPF, 30 mg, UIP Present, Primary Estimand) of the same compound?
The value was −3.07 % Predicted.

And the “FVC (% Predicted) Rate of Decline, Difference” value (participants with PPF; PPF, 60 mg - placebo, UIP Absent, Supplementary Estimand)?
The value was 3.8 % Predicted.

And the “FVC (% Predicted) Rate of Decline, Slope” value (participants with PPF; PPF, 60 mg, Not Receiving Antifibrotic Treatment, Supplementary Estimand)?
Its value is −1.56 % Predicted.

What about the “FVC (% Predicted) Rate of Decline, Slope” value (participants with PPF; PPF, 60 mg, Overall Population, Supplementary Estimand - While On Treatment) of the same compound?
Its value is −1.3 % Predicted.

What about the “FVC (% Predicted) Rate of Decline, Slope” value (participants with PPF; PPF, 60 mg, Receiving Antifibrotic Treatment, Supplementary Estimand) of the same compound?
The value was −1.1 % Predicted.

What about the “FVC (% Predicted) Rate of Decline, Slope” value (participants with PPF; PPF, 60 mg, UIP Absent, Supplementary Estimand) of the same compound?
The value was −0.7 % Predicted.

And the “FVC (% Predicted) Rate of Decline, Slope” value (participants with PPF; PPF, 60 mg, UIP Present, Primary Estimand)?
Its value is −1.46 % Predicted.

And the “Treatment difference 60 mg v placebo, rate of decline in ppFVC baseline to Week 26” value (participants with PPF; PPF, Non UIP subgroup)?
Its value is 3.80.

What about the “Relative Reduction” value (participants with PPF; PPF, Not Receiving Antifibrotic Treatment, Primary Estimand) of the same compound?
The value was “Estimand - Treatment Policy (Relative Reduction = 68.5%)”.

What about the “Relative Reduction” value (participants with PPF; PPF, Not Receiving Antifibrotic Treatment, Supplementary Estimand) of the same compound?
Its value is “Estimand - While on Treatment (Relative Reduction = 62.6%)”.

What about the “Relative Reduction” value (participants with PPF; PPF, Receiving Antifibrotic Treatment, Primary Estimand) of the same compound?
Its value is “Estimand - Treatment Policy (Relative Reduction = 85%)”.

And the “Relative Reduction” value (participants with PPF; PPF, Receiving Antifibrotic Treatment, Supplementary Estimand)?
Its value is “Estimand - While on Treatment (Relative Reduction = 74.9%)”.

And the “Relative Reduction” value (participants with PPF; PPF, UIP Absent, Primary Estimand)?
The value was “Policy Strategy (Relative Reduction = 83.6%)”.

And the “Relative Reduction” value (participants with PPF; PPF, UIP Absent, Supplementary Estimand)?
Its value is “While on Treatment (Relative Reduction = 84.4%)”.

What about the “Relative Reduction” value (participants with PPF; PPF, UIP Present, Primary Estimand) of the same compound?
The value was “Policy Strategy (Relative Reduction = 63%)”.

And the “Relative Reduction” value (participants with PPF; PPF, UIP Present, Supplementary Estimand)?
The value was “While on Treatment (Relative Reduction = 54%)”.
